Source: paper PMC9243172 (Heliyon, 2022)

Assays:
CYP2D6 = CYP2D6 (Homo sapiens, UniProt P10635); assay: Inhibition of CYP2D6; type: biochemical
CYP3A4 = CYP3A4 (Homo sapiens, UniProt P08684); assay: Inhibition of CYP3A4; type: biochemical
CYP1A2 = target: T1, CYP1A2 (Homo sapiens, UniProt P05177); assay: Inhibition of CYP1A2; type: biochemical
T1 sequence (P05177 1-516): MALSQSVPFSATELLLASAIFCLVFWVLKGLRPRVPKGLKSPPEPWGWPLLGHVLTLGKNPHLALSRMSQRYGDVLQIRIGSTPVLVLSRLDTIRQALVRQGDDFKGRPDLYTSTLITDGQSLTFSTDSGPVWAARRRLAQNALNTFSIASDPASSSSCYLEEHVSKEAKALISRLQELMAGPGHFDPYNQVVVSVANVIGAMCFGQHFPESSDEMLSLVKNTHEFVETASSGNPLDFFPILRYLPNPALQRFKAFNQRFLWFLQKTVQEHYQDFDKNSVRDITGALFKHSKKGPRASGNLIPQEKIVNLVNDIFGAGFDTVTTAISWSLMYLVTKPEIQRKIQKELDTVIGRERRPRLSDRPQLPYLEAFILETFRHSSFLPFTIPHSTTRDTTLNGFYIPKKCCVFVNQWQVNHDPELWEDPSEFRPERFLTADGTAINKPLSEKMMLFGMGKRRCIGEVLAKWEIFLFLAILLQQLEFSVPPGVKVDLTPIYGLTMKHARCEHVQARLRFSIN

CYP2C9 = CYP2C9 (Homo sapiens, UniProt P11712); assay: Inhibition of CYP2C9
CYP2C9, sequence (P11712 whole entry): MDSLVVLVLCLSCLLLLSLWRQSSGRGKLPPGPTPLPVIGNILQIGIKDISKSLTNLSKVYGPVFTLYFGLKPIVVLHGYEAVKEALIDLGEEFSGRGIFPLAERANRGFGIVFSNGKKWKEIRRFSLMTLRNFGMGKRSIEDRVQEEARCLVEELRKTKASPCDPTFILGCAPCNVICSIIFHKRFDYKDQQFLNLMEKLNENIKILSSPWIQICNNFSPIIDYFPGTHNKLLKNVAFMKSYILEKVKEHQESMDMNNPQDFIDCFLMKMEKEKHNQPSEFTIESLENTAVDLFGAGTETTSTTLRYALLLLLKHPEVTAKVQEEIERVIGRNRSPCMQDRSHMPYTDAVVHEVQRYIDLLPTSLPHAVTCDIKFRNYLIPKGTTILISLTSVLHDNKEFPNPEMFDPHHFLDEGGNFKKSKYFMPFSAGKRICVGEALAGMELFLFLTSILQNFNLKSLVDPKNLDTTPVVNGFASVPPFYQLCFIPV

[1] = Pharmacokinetic interaction of Triphala extract with midazolam in rats; details: for k el: Kel; for half-life: T1/2, rats
P-gp = P-gp (Homo sapiens, UniProt P08183); assay: Rhodamine-123 permeability across Caco-2 cell monolayers; details: Caco-2, pH 7.4
P-gp, sequence (P08183 whole entry): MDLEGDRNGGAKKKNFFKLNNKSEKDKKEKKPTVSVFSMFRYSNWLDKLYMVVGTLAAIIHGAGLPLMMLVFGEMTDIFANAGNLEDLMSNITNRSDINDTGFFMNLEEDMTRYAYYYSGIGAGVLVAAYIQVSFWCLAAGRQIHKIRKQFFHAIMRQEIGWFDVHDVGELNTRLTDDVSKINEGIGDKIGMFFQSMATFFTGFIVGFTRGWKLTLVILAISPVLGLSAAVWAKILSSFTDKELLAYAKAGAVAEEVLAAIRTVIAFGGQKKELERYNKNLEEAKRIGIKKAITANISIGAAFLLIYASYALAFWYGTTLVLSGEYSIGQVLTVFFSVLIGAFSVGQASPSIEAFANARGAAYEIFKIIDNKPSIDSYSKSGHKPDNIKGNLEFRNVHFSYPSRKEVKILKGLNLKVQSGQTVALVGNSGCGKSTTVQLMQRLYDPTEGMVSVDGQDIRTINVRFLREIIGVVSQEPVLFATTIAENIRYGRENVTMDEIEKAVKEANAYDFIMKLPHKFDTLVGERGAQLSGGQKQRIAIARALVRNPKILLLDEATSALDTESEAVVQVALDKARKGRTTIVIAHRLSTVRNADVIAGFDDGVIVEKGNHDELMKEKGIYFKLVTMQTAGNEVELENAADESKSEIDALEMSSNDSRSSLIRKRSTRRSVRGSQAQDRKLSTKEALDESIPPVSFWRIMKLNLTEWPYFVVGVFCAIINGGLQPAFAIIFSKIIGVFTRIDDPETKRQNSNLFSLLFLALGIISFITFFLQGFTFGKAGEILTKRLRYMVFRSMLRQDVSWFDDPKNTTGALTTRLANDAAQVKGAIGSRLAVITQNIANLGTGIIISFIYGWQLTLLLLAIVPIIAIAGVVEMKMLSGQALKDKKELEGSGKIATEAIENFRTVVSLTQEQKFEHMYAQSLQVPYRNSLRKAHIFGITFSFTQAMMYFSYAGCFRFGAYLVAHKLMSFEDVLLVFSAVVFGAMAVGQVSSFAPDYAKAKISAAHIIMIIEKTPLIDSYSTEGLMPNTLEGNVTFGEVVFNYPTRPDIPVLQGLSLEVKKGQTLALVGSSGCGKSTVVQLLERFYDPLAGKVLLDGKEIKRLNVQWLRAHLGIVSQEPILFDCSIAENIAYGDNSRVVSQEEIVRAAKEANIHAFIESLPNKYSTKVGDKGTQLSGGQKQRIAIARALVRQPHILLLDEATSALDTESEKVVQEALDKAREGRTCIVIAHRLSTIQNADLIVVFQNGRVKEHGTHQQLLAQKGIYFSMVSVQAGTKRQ

[2] = Pharmacokinetic interaction of Triphala extract with phenacetin in rats; details: for k el: Kel; for half-life: T1/2, rats
[3] = male, Wistar, rat, plasma, iv, 5 mg/kg, rats, midazolam 5 mg/kg iv, control (midazolam alone)
[4] = male, Wistar, rat, plasma, po, 20 mg/kg, rats, midazolam 20 mg/kg oral, control (midazolam alone)
[5] = rats, midazolam 20 mg/kg oral, control (midazolam alone)
[6] = rats, oral co-administration of Triphala 500 mg/kg, vs control
[7] = male, Wistar, rat, plasma, iv, 5 mg/kg, rats, phenacetin 5 mg/kg iv, control (phenacetin alone)
[8] = male, Wistar, rat, plasma, po, 30 mg/kg, rats, phenacetin 30 mg/kg oral, control (phenacetin alone)
[9] = rats, phenacetin 30 mg/kg oral, control (phenacetin alone)

CYP2D6, sequence (P10635 whole entry): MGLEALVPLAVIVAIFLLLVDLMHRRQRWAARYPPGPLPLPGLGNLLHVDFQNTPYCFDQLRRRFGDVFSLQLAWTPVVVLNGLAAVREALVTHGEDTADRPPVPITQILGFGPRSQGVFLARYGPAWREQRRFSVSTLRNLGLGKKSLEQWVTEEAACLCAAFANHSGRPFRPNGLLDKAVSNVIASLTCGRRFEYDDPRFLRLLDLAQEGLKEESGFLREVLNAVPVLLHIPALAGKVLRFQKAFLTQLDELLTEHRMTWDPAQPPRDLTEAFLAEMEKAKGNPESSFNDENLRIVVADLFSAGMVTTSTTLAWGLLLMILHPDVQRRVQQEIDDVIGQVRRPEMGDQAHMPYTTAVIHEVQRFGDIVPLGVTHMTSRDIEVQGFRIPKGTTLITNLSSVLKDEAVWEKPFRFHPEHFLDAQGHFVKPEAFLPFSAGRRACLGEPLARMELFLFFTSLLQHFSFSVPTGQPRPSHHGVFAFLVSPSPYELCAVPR
CYP3A4, sequence (P08684 whole entry): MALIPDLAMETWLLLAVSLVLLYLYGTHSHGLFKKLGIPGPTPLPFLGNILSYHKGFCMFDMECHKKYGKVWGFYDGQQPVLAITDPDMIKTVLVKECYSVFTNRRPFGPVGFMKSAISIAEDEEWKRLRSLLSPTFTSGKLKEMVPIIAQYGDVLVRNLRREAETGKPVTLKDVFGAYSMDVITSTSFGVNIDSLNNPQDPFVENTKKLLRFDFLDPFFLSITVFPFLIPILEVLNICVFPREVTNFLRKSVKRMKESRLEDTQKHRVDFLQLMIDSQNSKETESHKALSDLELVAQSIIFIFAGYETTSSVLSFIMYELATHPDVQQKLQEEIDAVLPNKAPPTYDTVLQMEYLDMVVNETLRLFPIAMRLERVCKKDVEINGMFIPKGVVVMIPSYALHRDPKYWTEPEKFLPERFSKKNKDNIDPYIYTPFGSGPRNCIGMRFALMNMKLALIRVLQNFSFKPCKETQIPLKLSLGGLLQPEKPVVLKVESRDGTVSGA

## O=c1oc2c(O)c(O)cc3c(=O)oc4c(O)c(O)cc1c4c23 [Ellagic acid]
CYP2D6
  IC50: 42.4 µM
CYP3A4
  IC50: 23.2 µM
CYP1A2
  IC50: 12.6 µM
CYP2C9
  IC50: 27.1 µM

## Cc1ncc2n1-c1ccc(Cl)cc1C(c1ccccc1F)=NC2 [midazolam]
[1]; [3]
  AUC: 670 ± 270 ng·h/mL
  Cmax: 910 ± 130 ng/mL
  k el: 0.00015 s⁻¹
  MRT: 64.8 ± 27.6 min
[1]; male, Wistar, rat, plasma, iv, 5 mg/kg, CLtot, rats, midazolam 5 mg/kg iv, control (midazolam alone)
  clearance: 83.5 mL/min
[1]; male, Wistar, rat, plasma, iv, 5 mg/kg, midazolam 5 mg/kg iv, control (midazolam alone)
  half-life: 58.8 ± 23.4 min
[1]; [4]
  AUC: 1070 ± 70 ng·h/mL
  Cmax: 950 ± 130 ng/mL
  k el: 0.000194 s⁻¹
  MRT: 88.8 ± 14.4 min
[1]; male, Wistar, rat, plasma, po, 20 mg/kg, midazolam 20 mg/kg oral, control (midazolam alone)
  half-life: 63.6 ± 11.4 min
[1]; male, Wistar, rat, plasma, po, 20 mg/kg, Tmax, rats, midazolam 20 mg/kg oral, control (midazolam alone)
  Tmax: 22.8 ± 2.4 min
[1]; rats, midazolam 5 mg/kg iv, control (midazolam alone)
  Vdss: 7.44 ± 4.0 L/h
[1]; [5]
  CLtot/F: 18.89 ± 1.08 L/h
  Vdss/F: 28.05 ± 4.9 L/h
[1]; [6]
  Increase of bioavailability of midazolam: ~40.7%

## COC(=O)c1ccccc1-c1c2ccc(=N)cc-2oc2cc(N)ccc12 [Rhodamine 123, rhodamine-123]
P-gp
  Papp A→B at 120 min, 2.5 μg/mL: 64 ± 10 ×10⁻⁶ cm/s
  Papp B→A at 120 min, 2.5 μg/mL: 190 ± 3 ×10⁻⁶ cm/s
  efflux ratio at 120 min, 2.5 μg/mL: 3.2 ± 0.5

## CCOc1ccc(NC(C)=O)cc1 [phenacetin]
[2]; male, Wistar, rat, plasma, iv, 5 mg/kg, AUC0-t, rats, phenacetin 5 mg/kg iv, control (phenacetin alone)
  AUC(0-t): 1770 ± 190 ng·h/mL
[2]; male, Wistar, rat, plasma, iv, 5 mg/kg, CLtot, rats, phenacetin 5 mg/kg iv, control (phenacetin alone)
  clearance: 48.3 mL/min
[2]; male, Wistar, rat, plasma, iv, 5 mg/kg, Cmax, rats, phenacetin 5 mg/kg iv, control (phenacetin alone)
  Cmax: 3650 ± 390 ng/mL
[2]; [7]
  k el: 0.000728 s⁻¹
  MRT: 21 ± 1.2 min
[2]; male, Wistar, rat, plasma, iv, 5 mg/kg, phenacetin 5 mg/kg iv, control (phenacetin alone)
  half-life: 16.2 ± 1.2 min
[2]; [8]
  k el: 0.000206 s⁻¹
  MRT: 79.2 ± 12 min
[2]; male, Wistar, rat, plasma, po, 30 mg/kg, phenacetin 30 mg/kg oral, control (phenacetin alone)
  half-life: 58.8 ± 7.2 min
[2]; male, Wistar, rat, plasma, po, 30 mg/kg, Tmax, rats, phenacetin 30 mg/kg oral, control (phenacetin alone)
  Tmax: 19.8 ± 6 min
[2]; rats, oral Triphala extract 100 mg/kg
  Enhancement of bioavailability (F) of phenacetin compared with control: approximately 1.2 fold
[2]; rats, oral Triphala extract 500 mg/kg
  Enhancement of bioavailability (F) of phenacetin compared with control: ~1.6 fold
[2]; [6]
  Increase of bioavailability of phenacetin: about 61.2%
[2]; rats, phenacetin 5 mg/kg iv, control (phenacetin alone)
  Vdss: 1.02 ± 0.1 L/h
[2]; rats, phenacetin 5 mg/kg iv, oral Triphala extract 100 mg/kg
  Vdss: 1.26 ± 0.2 L/h
[2]; rats, phenacetin 5 mg/kg iv, oral Triphala extract 500 mg/kg
  Vdss: 0.93 ± 0.1 L/h
[2]; [9]
  CLtot/F: 7.74 ± 2.63 L/h
  Cmax: 3310 ± 670 ng/mL
  Vdss/F: 9.06 ± 1.9 L/h

## O=C(O)c1cc(O)c(O)c(O)c1 [Gallic acid]
CYP2D6
  IC50: 265 µM
CYP1A2
  IC50: 89.9 µM
CYP2C9
  IC50: 338 µM
